Assay results taken from ChEMBL document CHEMBL4699655, “Optimization of the In Vivo Potency of Pyrazolopyrimidine MALT1 Protease Inhibitors by Reducing Metabolism and Increasing Potency in Whole Blood” (J Med Chem, 2020).
Converted amounts (≈) assume the structure as drawn. The source made the active and inactive calls. No cut-off for these calls is given here.

Tests used:
[1] = tested on: Rattus norvegicus; assay: Anti-autoimmune disease activity in OFA rat model of T-cell dependent B cell response assessed as reduction in SRBC-induced IgM producing B cells at 3 mg/kg, po QD for 4 days starting 2 days prior to immunization by ex vivo plaque forming assay relative to control; type: functional; details: 96 h, read-out: INH, time 4 day
[2] = Intrinsic clearance in human liver microsomes; type: ADME, Microsome; details: read-out: CLH
[3] = AUC (0 to 24 hrs) in Balb/C mouse at 3 mg/kg, po; type: ADME, organism-based; set-up: time < 24 hr, route oral, dose 3 mg/kg; details: in vivo
[4] = Thermodynamic solubility of the compound
[5] = Cmax in blood of OFA rat model of T-cell dependent B cell response at 1 mg/kg, po QD for 4 days starting 2 days prior to immunization and measured after 3 hrs; type: ADME, organism-based; set-up: route oral, dose 1 mg/kg, time 4 day
[6] = target: T1, Cathepsin K (Homo sapiens, UniProt P43235); assay: Inhibition of cathepsin K (unknown origin)
T1 sequence (P43235 whole entry): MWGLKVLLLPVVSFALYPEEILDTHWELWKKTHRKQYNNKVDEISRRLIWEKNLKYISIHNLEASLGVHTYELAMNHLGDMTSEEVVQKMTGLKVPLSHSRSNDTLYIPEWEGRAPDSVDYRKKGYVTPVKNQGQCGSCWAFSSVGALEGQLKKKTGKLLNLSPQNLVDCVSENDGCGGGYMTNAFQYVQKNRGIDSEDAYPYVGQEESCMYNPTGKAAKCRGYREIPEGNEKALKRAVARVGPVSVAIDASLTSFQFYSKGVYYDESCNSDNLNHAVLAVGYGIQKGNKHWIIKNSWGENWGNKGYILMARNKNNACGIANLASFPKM

[7] = Cmax in Balb/C mouse at 3 mg/kg, po; type: ADME, organism-based; set-up: route oral, dose 3 mg/kg; details: in vivo
[8] = tested on: OCI-Ly3; assay: Antitumor activity against human OCILY3 cells xenografted in SCID-bg mouse assessed as inhibition of tumor growth by measuring T/C ratio at 30 mg/kg, po QD for 53 days; type: functional, organism-based; details: time 53.0 day
[9] = target: Dipeptidyl peptidase 1 (Homo sapiens, UniProt P53634); assay: Inhibition of cathepsin C (unknown origin)
[10] = Apparent volume of distribution at steady state in Balb/C mouse at 1 mg/kg, iv; type: ADME, organism-based; details: in vivo, read-out: Vdss(app)
[11] = tested on: OCI-Ly3; assay: Inhibition of ROS production in human OCILY3 cells
[12] = Toxicity in SCID-bg mouse xenografted with human OCILY3 cells assessed as effect on body weight at 30 mg/kg, po QD for 49 days; type: organism-based; details: in vivo, 1176 h, time 49 day
[13] = tested on: BJAB; assay: Growth inhibition of human BJAB cells grown in soft agar
[14] = target: T2, Caspase-3 (Homo sapiens, UniProt P42574); assay: Inhibition of caspase-3 (unknown origin)
T2 sequence (P42574 whole entry): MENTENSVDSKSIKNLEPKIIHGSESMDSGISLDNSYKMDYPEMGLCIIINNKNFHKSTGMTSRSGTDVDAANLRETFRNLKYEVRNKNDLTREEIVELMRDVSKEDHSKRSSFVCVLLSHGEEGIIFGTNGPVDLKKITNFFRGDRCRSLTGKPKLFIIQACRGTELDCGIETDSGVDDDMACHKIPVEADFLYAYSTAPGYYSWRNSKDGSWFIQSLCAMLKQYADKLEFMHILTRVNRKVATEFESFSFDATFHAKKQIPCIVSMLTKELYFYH

[15] = tested on: Rattus norvegicus; assay: Anti-autoimmune disease activity in OFA rat model of T-cell dependent B cell response assessed as reduction in SRBC-induced IgM producing B cells at 0.3 mg/kg, po QD for 4 days starting 2 days prior to immunization by ex vivo plaque forming assay relative to control; type: functional; details: 96 h, read-out: INH, time 4 day
[16] = AUC (0 to 24 hrs) in Sprague-Dawley rat at 3 mg/kg, po; type: ADME, organism-based; set-up: time < 24 hr, route oral, dose 3 mg/kg; details: in vivo
[17] = tested on: OCI-Ly3; assay: Antitumor activity against human OCILY3 cells xenografted in SCID-bg mouse assessed as tumor regression level at 30 mg/kg, po BID for 49 days; type: functional; details: time 49 day
[18] = Toxicity in SCID-bg mouse xenografted with human OCILY3 cells assessed as effect on body weight at 30 mg/kg, po BID for 49 days; type: organism-based; details: in vivo, 1176 h, time 49 day
[19] = tested on: Rattus norvegicus; assay: Anti-autoimmune disease activity in OFA rat model of T-cell dependent B cell response assessed as reduction in SRBC-induced IgM producing B cells dosed orally once daily for 4 days starting 2 days prior to immunization by ex vivo plaque forming assay relative to control; type: functional
[20] = Cmax in blood of OFA rat model of T-cell dependent B cell response at 0.3 mg/kg, po QD for 4 days starting 2 days prior to immunization and measured after 3 hrs; type: ADME, organism-based; set-up: route oral, time 4 day, dose 0.3 mg/kg
[21] = Apparent permeability from apical to basolateral side in human Caco-2 cells
[22] = tested on: OCI-Ly3; assay: Growth inhibition of human OCILY3 cells grown in soft agar at 19.5 to 10000 nM; type: functional, cell-based; details: dose nM 19.5-10000
[23] = Clearance in Sprague-Dawley rat at 1 mg/kg, iv; type: ADME, organism-based; details: in vivo
[24] = tested on: OCI-Ly3; assay: Antitumor activity against human OCILY3 cells xenografted in SCID-bg mouse assessed as inhibition of tumor growth by measuring T/C ratio at 30 mg/kg, po QD for 49 days; type: functional; details: time 49 day
[25] = target: Cathepsin S (Homo sapiens, UniProt P25774); assay: Inhibition of cathepsin S (unknown origin)
[26] = Protein binding in rat plasma; type: ADME, cell-free; details: read-out: PPB (converted)
[27] = Lipophilicity, logP of the compound; details: octanol/water
[28] = Cmax in Sprague-Dawley rat at 3 mg/kg, po; type: ADME, organism-based; set-up: route oral, dose 3 mg/kg; details: in vivo
[29] = tested on: OCI-Ly3; assay: Antitumor activity against human OCILY3 cells xenografted in SCID-bg mouse assessed as tumor regression level at 30 mg/kg, po BID for 53 days; type: functional; details: time 53 day
[30] = tested on: OCI-Ly3; assay: Growth inhibition of human OCILY3 cells grown in soft agar
[31] = Clearance in Balb/C mouse at 1 mg/kg, iv; type: ADME, organism-based; details: in vivo
[32] = Terminal half life in Balb/C mouse at 1 mg/kg, iv; type: ADME, organism-based; details: in vivo, read-out: beta t1/2 (converted)
[33] = Cmax in blood of OFA rat model of T-cell dependent B cell response at 3 mg/kg, po QD for 4 days starting 2 days prior to immunization and measured after 3 hrs; type: ADME, organism-based; set-up: route oral, dose 3 mg/kg, time 4 day
[34] = Terminal half life in Sprague-Dawley rat at 1 mg/kg, iv; type: ADME, organism-based; details: in vivo, read-out: beta t1/2 (converted)
[35] = Cmax in blood of OFA rat model of T-cell dependent B cell response at 0.3 mg/kg, po QD for 4 days starting 2 days prior to immunization and measured after 24 hrs; type: ADME, organism-based; set-up: route oral, dose 0.3 mg/kg, time 5 day
[36] = Oral bioavailability in Balb/C mouse at 3 mg/kg; type: ADME, organism-based; details: in vivo
[37] = Oral bioavailability in Sprague-Dawley rat at 3 mg/kg; type: ADME, organism-based; details: in vivo
[38] = Intrinsic clearance in rat liver microsomes; type: ADME, Microsome; details: read-out: CLH
[39] = target: Cytochrome P450 3A4 (Homo sapiens, UniProt P08684); assay: Inhibition of CYP3A4 (unknown origin)
[40] = target: Cathepsin B (Homo sapiens, UniProt P07858); assay: Inhibition of cathepsin B (unknown origin)
[41] = target: Voltage-gated inwardly rectifying potassium channel KCNH2 (Homo sapiens, UniProt Q12809); assay: Inhibition of human ERG by dofetilide binding assay
[42] = tested on: BJAB; assay: Growth inhibition of human BJAB cells grown in soft agar at 19.5 to 10000 nM; type: functional, cell-based; details: dose nM 19.5-10000
[43] = tested on: TMD8; assay: Inhibition of IL-10 production in tumor of CD79B-mutant containing human TMD8 cells xenografted in SCID-bg mouse at 30 mg/kg, po administered as single dose; type: functional, organism-based
[44] = target: Cytochrome P450 2C9 (Homo sapiens, UniProt P11712); assay: Inhibition of CYP2C9 (unknown origin)
[45] = Cmax in blood of OFA rat model of T-cell dependent B cell response at 3 mg/kg, po QD for 4 days starting 2 days prior to immunization and measured after 24 hrs; type: ADME, organism-based; set-up: route oral, dose 3 mg/kg, time 5 day
[46] = Intrinsic clearance in mouse liver microsomes; type: ADME, Microsome; details: read-out: CLH
[47] = Apparent volume of distribution at steady state in Sprague-Dawley rat at 1 mg/kg, iv; type: ADME, organism-based; details: in vivo, read-out: Vdss(app)
[48] = target: Procathepsin L (Homo sapiens, UniProt P07711); assay: Inhibition of cathepsin L (unknown origin)
[49] = Cmax in blood of OFA rat model of T-cell dependent B cell response at 1 mg/kg, po QD for 4 days starting 2 days prior to immunization and measured after 24 hrs; type: ADME, organism-based; set-up: route oral, dose 1 mg/kg, time 5 day
[50] = Protein binding in human plasma; type: ADME, cell-free; details: read-out: PPB (converted)
[51] = target: Cytochrome P450 2D6 (Homo sapiens, UniProt P10635); assay: Inhibition of CYP2D6 (unknown origin)
Cytochrome P450 2D6, sequence (P10635 whole entry): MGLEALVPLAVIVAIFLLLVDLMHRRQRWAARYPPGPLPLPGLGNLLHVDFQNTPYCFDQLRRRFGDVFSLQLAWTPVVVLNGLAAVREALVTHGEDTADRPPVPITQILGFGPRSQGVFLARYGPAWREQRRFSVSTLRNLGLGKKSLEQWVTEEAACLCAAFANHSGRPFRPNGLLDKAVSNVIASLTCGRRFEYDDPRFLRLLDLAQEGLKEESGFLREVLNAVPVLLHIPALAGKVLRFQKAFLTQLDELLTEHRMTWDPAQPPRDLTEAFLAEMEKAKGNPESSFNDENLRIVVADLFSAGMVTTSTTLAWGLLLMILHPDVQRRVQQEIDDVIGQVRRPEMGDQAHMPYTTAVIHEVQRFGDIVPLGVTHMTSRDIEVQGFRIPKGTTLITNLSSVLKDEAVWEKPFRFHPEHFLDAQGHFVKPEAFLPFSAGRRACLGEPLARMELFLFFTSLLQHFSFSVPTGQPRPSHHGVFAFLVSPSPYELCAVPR

Dipeptidyl peptidase 1, sequence (P53634 25-134 limits assumed): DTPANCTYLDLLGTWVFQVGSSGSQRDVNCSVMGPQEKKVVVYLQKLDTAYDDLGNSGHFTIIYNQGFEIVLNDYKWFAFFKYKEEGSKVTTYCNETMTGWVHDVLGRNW
Dipeptidyl peptidase 1, sequence (P53634 231-394 limits assumed): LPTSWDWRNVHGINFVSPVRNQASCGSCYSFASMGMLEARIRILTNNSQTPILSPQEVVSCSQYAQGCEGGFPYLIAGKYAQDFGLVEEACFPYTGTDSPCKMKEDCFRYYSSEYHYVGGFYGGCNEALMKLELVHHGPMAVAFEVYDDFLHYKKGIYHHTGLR
Dipeptidyl peptidase 1, sequence (P53634 395-463 limits assumed): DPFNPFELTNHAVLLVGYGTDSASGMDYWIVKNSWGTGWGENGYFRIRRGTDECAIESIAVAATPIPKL
Voltage-gated inwardly rectifying potassium channel KCNH2, sequence (Q12809 whole entry): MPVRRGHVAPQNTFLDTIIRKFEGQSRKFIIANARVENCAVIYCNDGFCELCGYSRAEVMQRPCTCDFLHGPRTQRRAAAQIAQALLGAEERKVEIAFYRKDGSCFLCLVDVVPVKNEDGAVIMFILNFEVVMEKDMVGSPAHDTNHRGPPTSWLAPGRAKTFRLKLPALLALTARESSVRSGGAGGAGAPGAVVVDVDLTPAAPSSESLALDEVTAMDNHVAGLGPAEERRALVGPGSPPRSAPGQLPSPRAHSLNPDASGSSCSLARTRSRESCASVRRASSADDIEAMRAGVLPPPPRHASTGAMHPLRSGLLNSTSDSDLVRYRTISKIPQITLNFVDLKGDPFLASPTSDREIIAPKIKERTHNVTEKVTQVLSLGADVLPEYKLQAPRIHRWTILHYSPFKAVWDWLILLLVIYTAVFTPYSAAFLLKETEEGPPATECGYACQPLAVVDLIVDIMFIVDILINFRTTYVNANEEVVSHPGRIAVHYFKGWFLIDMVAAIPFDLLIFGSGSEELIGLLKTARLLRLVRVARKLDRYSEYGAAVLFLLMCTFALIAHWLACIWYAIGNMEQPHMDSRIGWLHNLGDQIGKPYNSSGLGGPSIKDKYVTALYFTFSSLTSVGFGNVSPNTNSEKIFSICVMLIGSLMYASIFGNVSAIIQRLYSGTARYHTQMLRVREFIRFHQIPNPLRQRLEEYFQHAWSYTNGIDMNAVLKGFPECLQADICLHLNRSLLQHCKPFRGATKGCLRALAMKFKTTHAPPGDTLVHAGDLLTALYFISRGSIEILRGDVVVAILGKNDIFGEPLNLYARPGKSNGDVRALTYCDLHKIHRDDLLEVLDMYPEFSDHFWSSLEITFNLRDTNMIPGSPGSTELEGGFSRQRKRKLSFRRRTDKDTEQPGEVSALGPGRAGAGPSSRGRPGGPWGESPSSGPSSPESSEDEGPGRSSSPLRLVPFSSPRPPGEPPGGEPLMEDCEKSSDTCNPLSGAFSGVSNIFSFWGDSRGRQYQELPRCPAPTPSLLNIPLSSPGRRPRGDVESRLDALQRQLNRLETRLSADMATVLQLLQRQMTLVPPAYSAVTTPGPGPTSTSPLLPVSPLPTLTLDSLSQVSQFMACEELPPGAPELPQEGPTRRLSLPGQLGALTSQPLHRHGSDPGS
Procathepsin L, sequence (P07711 whole entry): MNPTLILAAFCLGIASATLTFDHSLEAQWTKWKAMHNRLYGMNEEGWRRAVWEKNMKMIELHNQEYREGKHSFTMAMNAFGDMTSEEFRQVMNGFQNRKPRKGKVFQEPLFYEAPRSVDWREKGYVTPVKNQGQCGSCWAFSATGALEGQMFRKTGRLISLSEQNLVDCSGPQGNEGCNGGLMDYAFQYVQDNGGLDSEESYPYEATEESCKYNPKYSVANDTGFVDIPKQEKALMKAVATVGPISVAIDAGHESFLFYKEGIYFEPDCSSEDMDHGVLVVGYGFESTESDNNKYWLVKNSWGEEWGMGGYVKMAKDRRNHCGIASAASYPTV
Cytochrome P450 2C9, sequence (P11712 whole entry): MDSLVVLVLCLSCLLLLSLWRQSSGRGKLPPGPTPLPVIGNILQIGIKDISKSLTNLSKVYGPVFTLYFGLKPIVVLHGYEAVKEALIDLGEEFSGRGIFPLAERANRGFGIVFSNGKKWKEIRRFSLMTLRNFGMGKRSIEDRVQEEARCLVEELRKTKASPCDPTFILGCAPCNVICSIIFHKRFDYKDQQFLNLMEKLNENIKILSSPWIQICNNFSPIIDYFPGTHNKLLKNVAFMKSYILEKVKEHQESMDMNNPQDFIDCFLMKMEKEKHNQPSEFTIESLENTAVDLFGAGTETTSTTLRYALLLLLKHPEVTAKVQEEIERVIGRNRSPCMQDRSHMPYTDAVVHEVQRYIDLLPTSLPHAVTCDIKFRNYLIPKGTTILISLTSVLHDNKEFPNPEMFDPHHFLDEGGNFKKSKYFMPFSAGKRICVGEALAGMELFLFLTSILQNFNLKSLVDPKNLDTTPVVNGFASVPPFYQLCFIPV
Cytochrome P450 3A4, sequence (P08684 whole entry): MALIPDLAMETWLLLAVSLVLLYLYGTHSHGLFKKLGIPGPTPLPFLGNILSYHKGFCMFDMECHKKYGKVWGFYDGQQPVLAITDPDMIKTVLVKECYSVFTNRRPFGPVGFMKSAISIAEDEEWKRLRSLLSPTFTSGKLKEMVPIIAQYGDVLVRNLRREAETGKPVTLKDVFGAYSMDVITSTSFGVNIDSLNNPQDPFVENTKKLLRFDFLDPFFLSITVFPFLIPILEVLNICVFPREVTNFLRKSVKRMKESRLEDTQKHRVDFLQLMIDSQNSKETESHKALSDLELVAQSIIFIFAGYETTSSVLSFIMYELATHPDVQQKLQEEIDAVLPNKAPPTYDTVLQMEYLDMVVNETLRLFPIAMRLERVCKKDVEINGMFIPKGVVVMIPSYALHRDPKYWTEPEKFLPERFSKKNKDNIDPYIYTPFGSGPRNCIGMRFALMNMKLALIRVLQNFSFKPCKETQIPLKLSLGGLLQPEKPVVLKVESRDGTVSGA
Cathepsin S, sequence (P25774 whole entry): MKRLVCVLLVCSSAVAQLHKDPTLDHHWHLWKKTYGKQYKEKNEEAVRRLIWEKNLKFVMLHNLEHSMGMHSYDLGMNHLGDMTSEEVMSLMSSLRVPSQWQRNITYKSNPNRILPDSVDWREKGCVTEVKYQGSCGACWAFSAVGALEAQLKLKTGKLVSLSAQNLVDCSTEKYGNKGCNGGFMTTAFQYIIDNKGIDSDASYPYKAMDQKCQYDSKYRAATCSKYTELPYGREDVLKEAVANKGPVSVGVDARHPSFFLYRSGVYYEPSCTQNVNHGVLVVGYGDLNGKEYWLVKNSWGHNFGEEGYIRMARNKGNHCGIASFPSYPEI

microsomal CLint [2]: < 25 µL/min/mg
AUC [3]: 20.1 µM·h
solubility thermodynamic [4]: 4 µg/mL (≈ 8.92 µM)
Cmax [5]: 670 nM
IC50 [6]: > 100 µM
Cmax [7]: 1700 nM
IC50 [9]: > 100 µM
Vd [10]: 1.4 L/kg
IC50 [11]: 0.03 µM
IC50 [14]: > 100 µM
AUC [16]: 13.2 µM·h
Cmax [20]: 130 nM
Papp A→B [21]: 12.8 ×10⁻⁶ cm/s
clearance [23]: 7 mL/min/kg
IC50 [25]: > 100 µM
fraction unbound [26]: 0.03
logP [27]: 3.4
Cmax [28]: 700 nM
IC50 [30]: 0.24 µM
clearance [31]: 5 mL/min/kg
half-life [32]: 3.7 h
Cmax [33]: 2300 nM
half-life [34]: 8.5 h
Cmax [35]: 50 nM
bioavailability [36]: 83%
bioavailability [37]: 79%
microsomal CLint [38]: < 25 µL/min/mg
IC50 [39]: > 20 µM
IC50 [40]: > 100 µM
IC50 [44]: > 20 µM
Cmax [45]: 1000 nM
microsomal CLint [46]: < 25 µL/min/mg
Vd [47]: 4.2 L/kg
IC50 [48]: > 100 µM
Cmax [49]: 260 nM
fraction unbound [50]: 0.017
IC50 [51]: > 20 µM
SMILES: CO[C@@H](C)c1c(NC(=O)Nc2cnc(-n3nccn3)c(Cl)c2)cnc2cc(Cl)nn12
inhibition in vivo at 3 mg/kg [1]: 97%
Activity [8]: Active
Activity [12]: Non-Toxic
IC50 [13]: > 10 µM
inhibition in vivo at 0.3 mg/kg [15]: 58%
Activity [17]: -20%
Activity [18]: Non-Toxic
ED50 ([19]; po, 96 h, time 4 day): 0.3 mg/kg
Activity ([19]; time 4.0 day): Dose-dependent effect
growth inhibition (GI) [22]: Dose-dependent effect
T/C [24]: 32%
Activity [29]: -50%
IC50 [41]: > 30 µM
growth inhibition (GI) [42]: inactive
inhibition [43]: Active
